Reference: patent publication US10046048B2, “Homogenous suspension of immunopotentiating compounds and uses thereof” (GlaxoSmithKline Biologicals SA, priority 2009, dated 2018)

How the values were obtained:
[1] = aqueous solubility and chemical stability of Example 47; assay type: physicochemical
Description: Example 47 is a highly crystalline drug substance with very good chemical stability. Due to its extremely low aqueous solubility across full pH range (<0.5 μg/ml) and its high hydrophobic core structure, formulation with Alum (the only vaccine adjuvant licensed in the U.S.) is challenging. However, TLR7 agonist-Alum based vaccines could provide advantages, for example, induction of Th1 polarized response, and enhanced Serum Bactericidal Activity (SBA) and breath of coverage (e.g., MenB).

[2] = particle size after vortexing, sonication, mortar and pestle; assay type: physicochemical; settings: for average particle size: 2.5 mg/mL in 0.1% Tween 80 and 0.5% CMC, vortexing
Description: A number of homogenization methods were evaluated, including vortexing, sonication, and mortar and pestle method.
For vortexing, Example 47 was suspended at 2.5 mg/mL in 0.1% Tween 80 and 0.5% carboxymethyl cellulose (CMC), followed by vortexing. The average particle size was ˜100 μm.
For sonication, Example 47 was suspended at 2.5 mg/mL in 0.1% Tween 80 and 0.5% CMC followed by vortexing. The mixture was then subject to probe sonication for 5 minutes (with ice at 3 W, maximum power based on vial size). Finally, the mixture was homogenized by a handheld homogenizer for a few minutes. The average particle size was ˜80 μm.
In mortar and pestle method, 10 mg of Example 47 was ground for 5 minutes using mortar and pestle, then suspended in 0.5% Tween 80. […] Size range for the larger peak was 1-100 μm.

[3] = matrix of surfactants and suspending agents, size distribution by Mastersizer; assay type: physicochemical; settings: vortexed, probe sonicated, homogenized
Description: A number of surfactants and suspension agents were also evaluated. The matrix of surfactants and suspending agents, and the corresponding sizes distributions of the suspension particles are shown in the Table 1 below (D50, D90 (μm)).
In each experiment, 10 mg of Example 47 was mixed with 2 mL surfactant and 2 mL suspending agent. The mixtures were vortexed for 5 minutes, and probe sonicated at 3 W and homogenized for 2-4 minutes. The size distributions of the samples were measured using Mastersizer.
No visual size reduction was observed after sonication. Some size reduction was noticed visually after homogenization.

[4] = serum, injection site muscle and lymph node levels after intramuscular injection; assay type: in vivo; settings: mice, intramuscular 4 mpk with 3MenB/Alum; both DMSO (non-homogeneous) and homogeneous suspensions
[5] = system: RSV virus; experiment: neutralizing titers (PRNT60), RSV model; assay type: in vivo, respiratory syncytial virus (RSV); settings: Study 1; Balb/c mice; 25 μg dose
Source text: Mice were bled retro-orbitally on day 28.

[6] = 10 mg ground 5 minutes with mortar and pestle, suspended in 0.5% Tween 80
[7] = 0.5% CMC, 0.5% Sodium Lauryl Sulfate
[8] = 0.5% HPC, 0.5% Sodium Lauryl Sulfate
[9] = 0.5% HPMC, 0.5% Sodium Lauryl Sulfate

## Cc1ccc(CCc2cnc3c(N)nc4ccccc4c3c2)c(C)c1 [Example 47, 2-(2,4-dimethylphenethyl)benzo[f][1,7]naphthyridin-5-amine]
[1]; aqueous media, across full pH range
  solubility: < 0.5 µg/mL
[1]; crystalline drug substance
  chemical stability: very good
[2]
  average particle size: ~100 μm
[2]; probe sonication 5 minutes, handheld homogenizer
  average particle size: ~80 μm
[2]; [6]
  particle size peak (larger): ~8 μm
  particle size peak (smaller): 0.1 μm
  size range for the larger peak: 1-100 μm
[3]; 0.5% CMC, 0.1% Tween 80
  D50: 76.2 μm
  D90: 144.7 μm
[3]; 0.5% CMC, 0.5% Pluronic F-68
  D50: 49.1 μm
  D90: 104.4 μm
[3]; [7]
  D50: 28.0 μm
  D90: 53.3 μm
[3]; 0.5% CMC, 0.5% Tween 80
  D50: 75.8 μm
  D90: 149.1 μm
[3]; 0.5% HPC, 0.1% Tween 80
  D50: 43.6 μm
  D90: 68.0 μm
[3]; 0.5% HPC, 0.5% Pluronic F-68
  D50: 35.8 μm
  D90: 54.9 μm
[3]; [8]
  D50: 38.9 μm
  D90: 53.1 μm
[3]; 0.5% HPC, 0.5% Tween 80
  D50: 35.4 μm
  D90: 53.5 μm
[3]; 0.5% HPMC, 0.1% Tween 80
  D50: 25.8 μm
  D90: 53.5 μm
[3]; 0.5% HPMC, 0.5% Pluronic F-68
  D50: 19.4 μm
  D90: 33.5 μm
[3]; [9]
  D50: 26.8 μm
  D90: 59.3 μm
[3]; 0.5% HPMC, 0.5% Tween 80
  D50: 27.5 μm
  D90: 49.7 μm
[4]
  systemic exposure: low systemic exposure
[5]
  neutralizing titers, comparison of doses: Highest neutralizing titers
